Assay results as given in patent EP2501821B1, “PROCESS FOR PRODUCING PRIMYCIN, PRIMYCIN COMPONENT(S), PRECURSORS AND METABOLITES THEREOF VIA FEMENTATION BY THE USE OF BACTERIAL SPECIES SACCHAROMONOSPORA AZUREA” (Pannonpharma Gyógyszergyártó Kft., priority 2009, dated 2011).

Legend:
[1] = system: Bacillus sp.; assay: primycin MIC, antimicrobial spectrum re-evaluation; type: cell-based; details: culture collection strains
Excerpt: (§1) In our research leading to our new findings we assayed the antimicrobial spectrum of primycin in order to re-evaluate the minimal inhibitory concentration (MIC) values known from the literature and to determine the primycin susceptibility of new isolates. Comparative test results on strains of Gram-positive bacterial species of Microbial strain culture collection of PTE TTK BI Department of General and Environmental Microbiology were in agreement with the literature data with primycin MIC values of 0.06 mg/L for Staphylococcus sp. and 0.03 mg/L for Bacillus sp. respectively. Primycin MIC values higher than 1 mg/L for any of the Gram-positive strains tested were not detected.

[2] = system: Staphylococcus sp.; assay: primycin MIC, antimicrobial spectrum re-evaluation; type: cell-based; details: culture collection strains
Excerpt: as §1

[3] = system: Gram-positive strains; assay: primycin MIC, antimicrobial spectrum re-evaluation; type: cell-based, Gram-positive bacterial species; details: any of the Gram-positive strains tested
Excerpt: as §1

[4] = system: Gram-negative species; assay: primycin antimicrobial spectrum re-evaluation; type: cell-based
Excerpt: as §1

[5] = system: strains of species belonging to Saccharomonospora genus; assay: primycin MIC (primycin tolerance); type: cell-based
[6] = system: S. cyanea (44106); assay: primycin MIC (primycin tolerance); type: cell-based; details: S. cyanea DSM 44106
Method: (§2) Strains were grown for seven days and once the colonies were removed and extracted, they were tested for antimicrobial production in agar diffusion tests. […] For this comparison we repeatedly used the strains of the culture collection of Department which had preliminary been tested for primycin susceptibility. Our work hypothesis was further supported by our experience that a butanol-ethanol-water mixture (in the ratio of 1:1:2 respectively) which is an effective solvent of primycin was suitable for the extraction of the antibiotic. […] Thereafter we carried out shake flask fermentations with the Saccharomonospora sp. strains suitable for the process. Production results on shake flasks of the strains tested were congruent to their cultivations on solid media. […] Table 1. Primycin tolerance and antibiotic production of Saccharomonospora isolates. *: S. azurea strains identified and registered on the name S. caesia earlier: […]

[7] = system: S. glauca (43769); assay: primycin MIC (primycin tolerance); type: cell-based; details: S. glauca DSM 43769
Method: as §2

[8] = system: S. viridis (43017); assay: primycin MIC (primycin tolerance); type: cell-based; details: S. viridis DSM 43017
Method: as §2

[9] = system: S. xinjiangensis (44391); assay: primycin MIC (primycin tolerance); type: cell-based; details: S. xinjiangensis DSM 44391
Method: as §2

[10] = system: Saccharomonospora azurea (caesia) DSM 43044; assay: primycin MIC (primycin tolerance); type: cell-based; details: S. azurea (caesia) DSM 43044
Method: as §2

[11] = system: Saccharomonospora azurea (caesia) DSM 43068; assay: primycin MIC (primycin tolerance); type: cell-based; details: S. azurea (caesia) DSM 43068
Method: as §2

[12] = system: Saccharomonospora azurea (caesia) DSM 43680; assay: primycin MIC (primycin tolerance); type: cell-based; details: S. azurea (caesia) DSM 43680
Method: as §2

[13] = system: Saccharomonospora azurea DSM 44631; assay: primycin MIC (primycin tolerance); type: cell-based; details: S. azurea DSM 44631
Method: as §2

[14] = system: Saccharomonospora aurea strains; assay: primycin MIC (primycin tolerance), summary statement; type: cell-based
Excerpt: As it is known that antibiotic-producing strains are less susceptible to the antibiotic produced by themselves and the primordials of the existing primycin-producing strain also was selected by primycin tolerance level to enhance their production capability, it has been suspected that lowered primycin susceptibility of Saccharomonospora azurea strains can be the outcome of the production of an antibiotic with a mode of action analogue to that of primycin. The literature concordantly states that primycin has a unique mode of action, therefore it could be suspected from our surprising findings that the antibiotic supposedly produced by these strains can be primycin itself. However, there is no literature on primycin production of Saccharomonospora azurea or any other presently accepted species of Saccharomonospora genera.

[15] = system: Staphylococcus aureus (50 strains); details: broth dilution assay; cited from earlier work
[16] = system: Staphylococcus epidermidis (77 strains); details: broth dilution assay; cited from earlier work
[17] = system: Streptococcus faecalis (76 strains); details: broth dilution assay; cited from earlier work
[18] = system: one strain of Listeria monocytogenes; details: broth dilution assay; cited from earlier work
[19] = in water; cited from earlier work
[20] = system: Gram-positive bacteria and Mycobacterium species; details: cited from earlier work
[21] = system: in vitro cell cultures; details: cited from earlier work

primycin
MIC [1]: 0.03 µg/mL
MIC [2]: 0.06 µg/mL
MIC [3]: ≤ 1 µg/mL
effectiveness [4]: did not prove to be effective
MIC [5]: 8 to 64 µg/mL
Primycin MIC [6]: 8 µg/mL
Primycin MIC [7]: 8 µg/mL
Primycin MIC [8]: 0,5 mg/L
Primycin MIC [9]: 1 µg/mL
Primycin MIC [10]: 64 µg/mL
Primycin MIC [11]: 64 µg/mL
Primycin MIC [12]: 64 µg/mL
Primycin MIC [13]: 64 µg/mL
MIC [14]: 64 µg/mL
minimal inhibitory concentrations (MIC) [15]: 0.12 to 0.5 µg/mL
minimal inhibitory concentrations (MIC) [16]: 0.12 to 0.5 µg/mL
minimal inhibitory concentrations (MIC) [17]: 0.12 to 0.5 µg/mL
minimal inhibitory concentrations (MIC) [18]: 0.12 to 0.5 µg/mL
solubility [19]: poorly soluble in water
bacteriostatic effect [20]: has bacteriostatic effect
toxicity [21]: not shown to be toxic
